Results published in patent US10189837B2, “Crystalline (8S,9R)-5-fluoro-8-(4-fluorophenyl)-9-(1-methyl-1H-1,2,4-triazol-5-yl)-8,9-dihydro-2H-pyrido[4,3,2-de]phthalazin-3(7H)-one tosylate salt” (Medivation Technologies, LLC, priority 2010, dated 2019).

Tests used:
Assay type in all cases: physicochemical
[1] = Dynamic vapor sorption (DVS) isotherm
Description: 1 model from Surface Measurement Systems Ltd. (Alperton, Middlesex, UK). A moisture adsorption desorption isotherm was performed as outlined below. The standard isotherm run is a cycle starting at RH 0% to RH 95% at 5% intervals, followed by drying to RH 0% in 5% RH intervals.

[2] = Thermogravimetric analysis (TGA); conditions: for Weight Change: ramp 10.00 °C/min to 300.00 °C; for % Change in weight: ramp 10.00 °C/min to 400.00 °C
Description: Unless otherwise noted, TGA thermograms were acquired using a TA Instruments Q500 Thermogravimetric Analyzer (New Castle, Del., USA). Samples were weighed out into the pan. Except as noted below, the temperature was ramped from 25.00° C. to 400.00° C. at 10.00° C./minute.
A TGA thermogram for tosylate salt prepared using the steps described in Variation 2 was acquired using a Mettler Toledo Thermogravimetric Analyzer/Differential Scanning Calorimeter 1. The temperature was ramped from 25° C. to 400° C. at 10° C./minute.

[3] = Thermogravimetric analysis (TGA); conditions: ramp 10.00 °C/min to 300.00 °C
[4] = TGA, start about 25 °C, stop 120 °C, tosylate salt
[5] = TGA, start about 25 °C, stop 250 °C, tosylate salt

Cc1ccc(S(=O)(=O)O)cc1.Cn1ncnc1[C@H]1c2n[nH]c(=O)c3cc(F)cc(c23)N[C@@H]1c1ccc(F)cc1 [(8S,9R)-5-fluoro-8-(4-fluorophenyl)-9-(1-methyl-1H-1,2,4-triazol-5-yl)-8,9-dihydro-2H-pyrido[4,3,2-de]phthalazin-3(7H)-one mono-tosylate salt]
hygroscopicity (DVS) ([1]; 25 °C, humidity 0% to 95%): not hygroscopic
weight gain (DVS) ([1]; 25 °C, humidity increased from 0% to 95%): less than 1%
Change in Mass (%) Desorption ([1]; Target % P/Po 0.0): −0.0015%
Change in Mass (%) Desorption ([1]; Target % P/Po 5.0): 0.0203%
Change in Mass (%) Desorption ([1]; Target % P/Po 10.0): 0.0326%
Change in Mass (%) Desorption ([1]; Target % P/Po 15.0): 0.0421%
Change in Mass (%) Desorption ([1]; Target % P/Po 20.0): 0.0513%
Change in Mass (%) Desorption ([1]; Target % P/Po 25.0): 0.0649%
Change in Mass (%) Desorption ([1]; Target % P/Po 30.0): 0.0791%
Change in Mass (%) Desorption ([1]; Target % P/Po 35.0): 0.0947%
Change in Mass (%) Desorption ([1]; Target % P/Po 40.0): 0.1084%
Change in Mass (%) Desorption ([1]; Target % P/Po 45.0): 0.1266%
Change in Mass (%) Desorption ([1]; Target % P/Po 50.0): 0.1456%
Change in Mass (%) Desorption ([1]; Target % P/Po 55.0): 0.1668%
Change in Mass (%) Desorption ([1]; Target % P/Po 60.0): 0.1895%
Change in Mass (%) Desorption ([1]; Target % P/Po 65.0): 0.2192%
Change in Mass (%) Desorption ([1]; Target % P/Po 70.0): 0.2535%
Change in Mass (%) Desorption ([1]; Target % P/Po 75.0): 0.2919%
Change in Mass (%) Desorption ([1]; Target % P/Po 80.0): 0.3402%
Change in Mass (%) Desorption ([1]; Target % P/Po 85.0): 0.4113%
Change in Mass (%) Desorption ([1]; Target % P/Po 90.0): 0.5230%
Change in Mass (%) Desorption ([1]; Target % P/Po 95.0): 0.7473%
stability to heat (TGA trace) ([2]; 25 °C to 400 °C at 10 °C/minute, prior to the onset of decomposition at the melting point): stable to heat

Cn1ncnc1[C@H]1c2n[nH]c(=O)c3cc(F)cc(c23)N[C@@H]1c1ccc(F)cc1 [compound 1, (8S,9R)-5-fluoro-8-(4-fluorophenyl)-9-(1-methyl-1H-1,2,4-triazol-5-yl)-8,9-dihydro-2H-pyrido[4,3,2-de]phthalazin-3(7H)-one]
Weight Change ([3]; TGA at 120 °C): 1.45%
Weight Change ([3]; TGA at 238 °C): 9.214%
Weight Change ([3]; TGA at […]): 4.068%
Weight Change ([2]; TGA at 225 °C): 9.125%
Weight Change ([2]; TGA at 252 °C): 9.265%

Cn1ncnc1[C@H]1c2n[nH]c(=O)c3cc(F)cc(c23)N[C@@H]1c1ccc(F)cc1 [compound 3, (8S,9R)-5-fluoro-8-(4-fluorophenyl)-9-(1-methyl-1H-1,2,4-triazol-5-yl)-8,9-dihydro-2H-pyrido[4,3,2-de]phthalazin-3(7H)-one]
Weight Change ([3]; TGA at 120 °C): 2.33%
Weight Change ([3]; TGA at 178 °C): 2.829%
Weight Change ([2]; TGA at 152 °C): 2.584%
Weight Change ([2]; TGA at 205 °C): 3.42%
Weight Change ([2]; TGA at 250 °C): 5.193%

Cc1ccc(S(=O)(=O)O)cc1.Cn1ncnc1[C@H]1c2n[nH]c(=O)c3cc(F)cc(c23)N[C@@H]1c1ccc(F)cc1 [compound 5, (8S,9R)-5-fluoro-8-(4-fluorophenyl)-9-(1-methyl-1H-1,2,4-triazol-5-yl)-8,9-dihydro-2H-pyrido[4,3,2-de]phthalazin-3(7H)-one tosylate salt]
% Change in weight ([2]; TGA, start 25.13 °C, stop 340.46 °C): 43.54%
% Change in weight [2, 4]: 0.1231%
% Change in weight [2, 5]: 0.2894%

Cc1ccc(S(=O)(=O)O)cc1.Cn1ncnc1[C@H]1c2n[nH]c(=O)c3cc(F)cc(c23)N[C@@H]1c1ccc(F)cc1 [compound 6, (8S,9R)-5-fluoro-8-(4-fluorophenyl)-9-(1-methyl-1H-1,2,4-triazol-5-yl)-8,9-dihydro-2H-pyrido[4,3,2-de]phthalazin-3(7H)-one tosylate salt]
% Change in weight ([2]; TGA, start 25.2 °C, stop 338.56 °C): 24.56%
% Change in weight [2, 4]: 0.0388%
% Change in weight [2, 5]: 0.5425%

Cc1ccc(S(=O)(=O)O)cc1.Cn1ncnc1[C@H]1c2n[nH]c(=O)c3cc(F)cc(c23)N[C@@H]1c1ccc(F)cc1 [compound 7, (8S,9R)-5-fluoro-8-(4-fluorophenyl)-9-(1-methyl-1H-1,2,4-triazol-5-yl)-8,9-dihydro-2H-pyrido[4,3,2-de]phthalazin-3(7H)-one tosylate salt]
% Change in weight ([2]; TGA, start 25.5 °C, stop 334 °C): 26.55%
% Change in weight [2, 4]: 0.2109%
% Change in weight [2, 5]: 2.552%

Cc1ccc(S(=O)(=O)O)cc1.Cn1ncnc1[C@H]1c2n[nH]c(=O)c3cc(F)cc(c23)N[C@@H]1c1ccc(F)cc1 [compound 8, (8S,9R)-5-fluoro-8-(4-fluorophenyl)-9-(1-methyl-1H-1,2,4-triazol-5-yl)-8,9-dihydro-2H-pyrido[4,3,2-de]phthalazin-3(7H)-one tosylate salt]
weight gain (DVA) ([1]; from 0%-95% RH): 0.1574%
% Change in weight ([2]; TGA, start 24.9 °C, stop 274.33 °C): 2.071%
% Change in weight ([2]; TGA, start 24.9 °C, stop 320 °C): 19.97%
% Change in weight ([2]; TGA, start 24.9 °C, stop 335 °C): 34.56%
% Change in weight ([2]; TGA, start 24.9 °C, stop 363.03 °C): 50.39%
% Change in weight ([2]; TGA, start 24.9 °C, stop 394.92 °C): 54.39%
% Change in weight [2, 4]: 0.06696%

Cn1ncnc1[C@H]1c2n[nH]c(=O)c3cc(F)cc(c23)N[C@@H]1c1ccc(F)cc1 [compound 11, (8S,9R)-5-fluoro-8-(4-fluorophenyl)-9-(1-methyl-1H-1,2,4-triazol-5-yl)-8,9-dihydro-2H-pyrido[4,3,2-de]phthalazin-3(7H)-one]
weight loss ([2]; TGA at 134.8 °C): 5.72%

Cn1ncnc1[C@H]1c2n[nH]c(=O)c3cc(F)cc(c23)N[C@@H]1c1ccc(F)cc1 [compound 12, (8S,9R)-5-fluoro-8-(4-fluorophenyl)-9-(1-methyl-1H-1,2,4-triazol-5-yl)-8,9-dihydro-2H-pyrido[4,3,2-de]phthalazin-3(7H)-one]
weight loss ([2]; TGA at 139.06 °C): 7.034%

Cn1ncnc1[C@H]1c2n[nH]c(=O)c3cc(F)cc(c23)N[C@@H]1c1ccc(F)cc1 [compound 19, (8S,9R)-5-fluoro-8-(4-fluorophenyl)-9-(1-methyl-1H-1,2,4-triazol-5-yl)-8,9-dihydro-2H-pyrido[4,3,2-de]phthalazin-3(7H)-one]
Weight Change ([3]; TGA at 120 °C): 1.054%
Weight Change ([3]; TGA at 174 °C): 5.977%
Weight Change ([3]; TGA at 185 °C): 7.82%
Weight Change ([3]; TGA at 238 °C): 8.874%
Weight Change ([2]; TGA at 161 °C): 4.256%

Cn1ncnc1[C@H]1c2n[nH]c(=O)c3cc(F)cc(c23)N[C@@H]1c1ccc(F)cc1 [compound 20, (8S,9R)-5-fluoro-8-(4-fluorophenyl)-9-(1-methyl-1H-1,2,4-triazol-5-yl)-8,9-dihydro-2H-pyrido[4,3,2-de]phthalazin-3(7H)-one]
Weight Change ([3]; TGA at 120 °C): 1.926%
Weight Change ([3]; TGA at 189.67 °C): 3.234%
Weight Change ([3]; TGA at 256.48 °C): 3.448%
Weight Change ([2]; TGA at 174.03 °C): 3.167%

Cn1ncnc1[C@H]1c2n[nH]c(=O)c3cc(F)cc(c23)N[C@@H]1c1ccc(F)cc1 [compound 21, (8S,9R)-5-fluoro-8-(4-fluorophenyl)-9-(1-methyl-1H-1,2,4-triazol-5-yl)-8,9-dihydro-2H-pyrido[4,3,2-de]phthalazin-3(7H)-one]
weight loss ([2]; TGA at 142.46 °C): 3.7%
weight loss ([2]; TGA at 256.48 °C): 4.259%

Cn1ncnc1[C@H]1c2n[nH]c(=O)c3cc(F)cc(c23)N[C@@H]1c1ccc(F)cc1 [compound 24, (8S,9R)-5-fluoro-8-(4-fluorophenyl)-9-(1-methyl-1H-1,2,4-triazol-5-yl)-8,9-dihydro-2H-pyrido[4,3,2-de]phthalazin-3(7H)-one]
weight loss ([2]; TGA at 223.8 °C): 17.47%
weight loss ([2]; TGA, ambient to 120 °C): 0.9388%
